Test results taken from US7709504B2, “Use of Substituted 2-thio-3,5-dicyano-4-phenyl-6-aminopyridines in the treatment of nausea and vomiting” (Bayer Schering Pharma Aktiengesellschaft, priority 2004, dated 2010).

Test system: ferrets
Assay: Emetine-induced retching tests on ferrets
Assay type: in vivo
Settings: for antiemetic effect: test substance 0.3 and 3.0 mg/kg p.o. 60 min before emetine
Description: Emetine-Induced Retching Tests on Ferrets:
The determination of the antiemetic action follows the method described by Gardner et al. in Brit. J. Pharmacol., 116, 3158-3163, 1995.
Sixty minutes before administration of the test substance, the ferrets were accommodated in individual stainless steel cages (40×50×34 cm) having a grid floor. The animals were then treated with emetine (2 mg/kg p.o.) and observed immediately for a period of 2 hours with a view to the following points: • number of ferrets which show signs of retching and vomiting; • latency up to initial retching (hours, minutes, seconds); • latency up to initial vomiting (hours, minutes, seconds); • retching (how often); • vomiting (how often); • number of nauseas; • average duration of the vomiting periods (minutes, seconds); • serious side effects on behavior.
Retching is defined according to the invention as a rhythmical respiratory movement against closed vocal cords, while vomiting is defined according to the invention as a forced expulsion of the higher stomach and intestinal contents.
32 ferrets were investigated. The substance tested was administered in two doses, orally sixty minutes before emetine administration, and compared to a control group. Ondansetrone (16 mg/kg p.o.) was given under the same experimental conditions and served as a reference substance.
The 32 ferrets were employed repeatedly in order to investigate 4 test substances. The administration scheme for the three-week experiment looked as follows:
The amounts were analyzed and the student's test was used in the comparison of the treated groups with the control group.
The […] data were analyzed, Fisher's exact probability test being used for the comparison of the treated groups with the control group.

[1] = ferrets given emetine 2 mg/kg p.o., vs control group
[2] = 16 mg/kg p.o., ferrets, emetine 2 mg/kg p.o., 2 h observation

COCCOc1ccc(-c2c(C#N)c(N)nc(SCc3cccnc3)c2C#N)cc1 [Substance 2]
antiemetic effect [1]: no significant antiemetic effect

Cc1nccn1CC1CCc2c(c3ccccc3n2C)C1=O (centres unmarked) [ondansetrone, Ondansetrone, reference compound]
number of ferrets in which emesis was induced [2]: one of 16 | quantitative occurrence of retching and vomiting (induced by emetine) [2]: significantly reduced

N#Cc1c(NCCO)nc(SCc2ccccc2)c(C#N)c1-c1ccccc1 [Substance 1]
antiemetic effect [1]: no significant antiemetic effect

CC(=O)Nc1ccc(-c2c(C#N)c(N)nc(SCc3ccccn3)c2C#N)cc1 [Substance 3]
prevention of emetine-induced vomiting (ferrets given emetine 2 mg/kg p.o., test substance in two doses orally 60 min before emetine, vs control group): significantly prevented
